What was measured:
Test in all cases: relative viability (nuclei count vs DMSO), 5 days (fraction); higher = more cells survive
[1] = compound: O=S(=O)(c1ccccc1)N(CC(F)(F)F)c1ccc(C(O)(C(F)(F)F)C(F)(F)F)cc1 + Cc1nc(NC(=O)N2CCC[C@H]2C(N)=O)sc1-c1ccnc(C(C)(C)C(F)(F)F)c1 [Alpelisib] (partner 2 µM)
Outline: (§1)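 Lung cancer cell lines were seeded in 1536-well plates and dosed by pin tool the next day, with either a single drug or a fixed anchor-drug dose combined with five library-drug doses (not always all listed) spaced in √10 steps. Five days later, one step fixed the cells and stained their nuclei (final 0.05% Triton X-100, 1% formaldehyde, 1 ug/ml Hoechst), and nuclei were counted on 4× images. Relative viability is the nuclei count in treated wells divided by the count in vehicle wells, and each value is the median of duplicate plates.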

RO-3306 + Phenformin = compound: C1=CC2=C(C=CC(=C2)C=C3C(=O)NC(=NCC4=CC=CS4)S3)N=C1 [RO-3306] + N=C(N)NC(=N)NCCc1ccccc1 [Phenformin] (partner 250 µM)
Outline: as §1

RO-3306 + Trametinib = compound: C1=CC2=C(C=CC(=C2)C=C3C(=O)NC(=NCC4=CC=CS4)S3)N=C1 [RO-3306] + CC(=O)Nc1cccc(-n2c(=O)n(C3CC3)c(=O)c3c(Nc4ccc(I)cc4F)n(C)c(=O)c(C)c32)c1 [Trametinib] (partner 0.02 µM)
Outline: as §1

Cell Line | relative viability ([1]; first compound 0.8 µM) | relative viability ([1]; first compound 2.53 µM) | relative viability ([1]; first compound 8 µM) | relative viability (RO-3306 + Phenformin; first compound 0.01 µM) | relative viability (RO-3306 + Phenformin; first compound 0.03162 µM) | relative viability (RO-3306 + Phenformin; first compound 0.1 µM) | relative viability (RO-3306 + Phenformin; first compound 0.3162 µM) | relative viability (RO-3306 + Phenformin; first compound 1 µM) | relative viability (RO-3306 + Trametinib; first compound 0.01 µM) | relative viability (RO-3306 + Trametinib; first compound 0.03162 µM) | relative viability (RO-3306 + Trametinib; first compound 0.1 µM) | relative viability (RO-3306 + Trametinib; first compound 0.3162 µM) | relative viability (RO-3306 + Trametinib; first compound 1 µM)
NCI-H596 | 0.423 | 0.419 | 0.421 | 0.77 | 0.63 | 0.799 | 0.758 | 0.966 | 0.798 | 0.773 | 0.722 | 0.793 | 0.58
SW 900 | – | – | – | 0.636 | 0.539 | 0.506 | 0.465 | 0.502 | 0.885 | 0.742 | 0.752 | 0.663 | 0.804
NCI-H1650 | – | – | – | 0.419 | 0.397 | 0.38 | 0.358 | 0.293 | 0.6 | 0.505 | 0.514 | 0.565 | 0.447
EKVX | 0.892 | 0.803 | 0.955 | 0.245 | 0.196 | 0.218 | 0.217 | 0.22 | 0.328 | 0.298 | 0.362 | 0.328 | 0.324
NCI-H2342 | – | – | – | 0.591 | 0.519 | 0.527 | 0.569 | 0.586 | 0.988 | 0.676 | 0.749 | 0.843 | 0.732
NCI-H1975 | 0.616 | 0.581 | 0.594 | 0.412 | 0.392 | 0.378 | 0.405 | 0.384 | 0.348 | 0.319 | 0.309 | 0.33 | 0.331
HCC-78 | 0.349 | 0.298 | 0.289 | 0.705 | 0.586 | 0.642 | 0.723 | 0.696 | 0.788 | 0.697 | 0.744 | 1.02 | 0.669
LXF-289 | 1.03 | 0.912 | 0.789 | 0.52 | 0.507 | 0.506 | 0.543 | 0.428 | 0.741 | 0.63 | 0.647 | 0.673 | 0.695
RERF-LC-KJ | 0.857 | 0.701 | 0.858 | 0.428 | 0.445 | 0.416 | 0.445 | 0.407 | 0.914 | 0.907 | 0.862 | 0.881 | 0.935
NCI-H1793 | 0.585 | 0.491 | 0.578 | 0.346 | 0.347 | 0.397 | 0.366 | 0.315 | 0.479 | – | 0.408 | 0.43 | 0.513
NCI-H1944 | 0.802 | 0.837 | 0.738 | 0.206 | 0.182 | 0.2 | 0.168 | 0.194 | 0.387 | 0.403 | 0.428 | 0.445 | 0.41
BEN | 1.13 | 0.953 | 0.902 | 0.298 | 0.266 | 0.26 | 0.252 | 0.263 | 1 | 0.895 | 1.02 | 1.13 | 1.13
ABC-1 | 0.936 | 0.916 | 1.1 | 0.238 | 0.222 | 0.268 | 0.27 | 0.232 | – | – | – | – | –
H3255 | 0.783 | 0.632 | 0.569 | 0.392 | 0.326 | 0.315 | 0.32 | 0.332 | 0.791 | 0.533 | 0.584 | 0.557 | 0.546
NCI-H1355 | 0.861 | 0.727 | 0.715 | 0.429 | – | 0.516 | 0.422 | 0.404 | 0.472 | 0.324 | 0.404 | 0.448 | 0.376
HCC-366 | 0.469 | 0.436 | 0.428 | 0.644 | 0.547 | 0.65 | 0.613 | 0.63 | 0.378 | 0.326 | 0.374 | 0.381 | 0.313
COR-L 105 | 1.13 | 0.848 | 0.989 | 0.499 | 0.386 | 0.417 | 0.517 | 0.429 | 0.392 | 0.491 | 0.427 | 0.434 | 0.538
NCI-H1648 | – | – | – | – | – | – | – | – | 0.482 | – | 0.47 | 0.538 | 0.404
NCI-H522 | – | – | – | 0.599 | 0.615 | 0.699 | 0.666 | 0.733 | 0.652 | 0.521 | 0.664 | 0.712 | 0.666
NCI-H2228 | 0.88 | 0.491 | 0.502 | 0.286 | 0.211 | 0.276 | 0.32 | 0.241 | 0.541 | 0.43 | 0.436 | 0.62 | 0.281
EBC-1 | 0.572 | 0.474 | 0.547 | – | – | – | – | – | – | – | – | – | –
NCI-H1437 | 0.904 | 0.771 | 0.718 | 0.317 | 0.261 | 0.308 | 0.297 | 0.316 | 0.539 | 0.409 | 0.54 | 0.543 | 0.527
NCI-H1623 | – | – | – | 0.61 | 0.597 | 0.579 | 0.58 | 0.568 | – | – | – | – | –
NCI-H1792 | 0.629 | 0.445 | 0.34 | 0.196 | – | 0.156 | 0.289 | 0.259 | 0.508 | – | 0.372 | 0.585 | 0.413
LOU-NH91 | 0.654 | 0.721 | 0.74 | 0.808 | 0.709 | 0.681 | 0.649 | 0.694 | 0.829 | 0.735 | 0.75 | 0.76 | 0.742
LC-2-ad | 0.576 | 0.843 | 0.841 | 0.538 | 0.476 | 0.492 | 0.614 | 0.562 | 0.961 | 0.848 | 0.945 | 0.908 | 0.852
A549 | 0.643 | 0.779 | 0.677 | 0.225 | 0.802 | – | 0.124 | 1.12 | – | – | – | – | –
NCI-H1703 | 0.343 | 0.316 | 0.382 | – | – | – | – | – | – | – | – | – | –
IA-LM | 0.715 | 0.5 | 0.655 | – | – | – | – | – | – | – | – | – | –
NCI-H1563 | 0.923 | 0.833 | 0.788 | 0.643 | 0.639 | 0.641 | 0.631 | 0.666 | – | – | – | – | –
